One assay has as its target T1, JARID1B (Homo sapiens, UniProt Q9UGL1).
T1 construct: The FLAG tagged full length JARID1B enzyme was expressed in Sf21 insect cells using FLAG-JARID1B baculoviruses; FLAG (N); made in house; host or cells: Sf21 insect cells (baculovirus)
Description: FLAG-JARID1B histone demethylase assay with AlphaScreen detection (HTS and dose response).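 On Assay Signal (percent): compound tested at 20 µM.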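 On Assay − Artifact Signal (percent): compound tested at 20 µM.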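 On all read-outs here: FLAG-tagged JARID1B at 4 nM acting on a biotinylated H3K4me3 peptide, demethylation read by AlphaScreen luminescence, with hits checked against bio-H3K4me2 without enzyme.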 The assay is classed as biochemical. The conditions noted are these: for inhibition at 20 µM: high-throughput screen, compound 20 μM, standard demethylase conditions (10 μM α-KG, 50 μM Fe (II)), read-out: Inhibitory effect (percent); for Validation result of HTS active: effect of the compound in the JARID1B AlphaScreen demethylase assay / Assay Signal (percent): validation of HTS actives; for Validation result of HTS active: effect of the compound in the JARID1B AlphaScreen demethylase assay: total signal before subtraction of artifact signal; for Assay − Artifact Signal (percent): assay signal minus artifact signal; for Assay Signal (percent): effect of compound in JARID1B AlphaScreen assay. On the technique in general: Bead proximity is the source of the signal in Alpha formats.

A short description of assay [1]: AlphaScreen counterscreen against bio-H3K4me2 peptide in the absence of enzyme (artifact signal).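 On all read-outs here: counterscreen run without enzyme against bio-H3K4me2 peptide to remove false positive hits from the JARID1 demethylase AlphaScreen screen.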 The conditions noted are these: for Artifact signal: effect of the compound when it is incubated with bio-H3K4me2 peptide: counterscreen, no enzyme; for Artifact Signal (percent): effect of the compound when incubated with bio-H3K4me2 peptide (counterscreen, no enzyme).

The structures appear in SMILES notation. Where only a bound is given, the exact number is not on record here.

T1 sequence (Q9UGL1 whole entry): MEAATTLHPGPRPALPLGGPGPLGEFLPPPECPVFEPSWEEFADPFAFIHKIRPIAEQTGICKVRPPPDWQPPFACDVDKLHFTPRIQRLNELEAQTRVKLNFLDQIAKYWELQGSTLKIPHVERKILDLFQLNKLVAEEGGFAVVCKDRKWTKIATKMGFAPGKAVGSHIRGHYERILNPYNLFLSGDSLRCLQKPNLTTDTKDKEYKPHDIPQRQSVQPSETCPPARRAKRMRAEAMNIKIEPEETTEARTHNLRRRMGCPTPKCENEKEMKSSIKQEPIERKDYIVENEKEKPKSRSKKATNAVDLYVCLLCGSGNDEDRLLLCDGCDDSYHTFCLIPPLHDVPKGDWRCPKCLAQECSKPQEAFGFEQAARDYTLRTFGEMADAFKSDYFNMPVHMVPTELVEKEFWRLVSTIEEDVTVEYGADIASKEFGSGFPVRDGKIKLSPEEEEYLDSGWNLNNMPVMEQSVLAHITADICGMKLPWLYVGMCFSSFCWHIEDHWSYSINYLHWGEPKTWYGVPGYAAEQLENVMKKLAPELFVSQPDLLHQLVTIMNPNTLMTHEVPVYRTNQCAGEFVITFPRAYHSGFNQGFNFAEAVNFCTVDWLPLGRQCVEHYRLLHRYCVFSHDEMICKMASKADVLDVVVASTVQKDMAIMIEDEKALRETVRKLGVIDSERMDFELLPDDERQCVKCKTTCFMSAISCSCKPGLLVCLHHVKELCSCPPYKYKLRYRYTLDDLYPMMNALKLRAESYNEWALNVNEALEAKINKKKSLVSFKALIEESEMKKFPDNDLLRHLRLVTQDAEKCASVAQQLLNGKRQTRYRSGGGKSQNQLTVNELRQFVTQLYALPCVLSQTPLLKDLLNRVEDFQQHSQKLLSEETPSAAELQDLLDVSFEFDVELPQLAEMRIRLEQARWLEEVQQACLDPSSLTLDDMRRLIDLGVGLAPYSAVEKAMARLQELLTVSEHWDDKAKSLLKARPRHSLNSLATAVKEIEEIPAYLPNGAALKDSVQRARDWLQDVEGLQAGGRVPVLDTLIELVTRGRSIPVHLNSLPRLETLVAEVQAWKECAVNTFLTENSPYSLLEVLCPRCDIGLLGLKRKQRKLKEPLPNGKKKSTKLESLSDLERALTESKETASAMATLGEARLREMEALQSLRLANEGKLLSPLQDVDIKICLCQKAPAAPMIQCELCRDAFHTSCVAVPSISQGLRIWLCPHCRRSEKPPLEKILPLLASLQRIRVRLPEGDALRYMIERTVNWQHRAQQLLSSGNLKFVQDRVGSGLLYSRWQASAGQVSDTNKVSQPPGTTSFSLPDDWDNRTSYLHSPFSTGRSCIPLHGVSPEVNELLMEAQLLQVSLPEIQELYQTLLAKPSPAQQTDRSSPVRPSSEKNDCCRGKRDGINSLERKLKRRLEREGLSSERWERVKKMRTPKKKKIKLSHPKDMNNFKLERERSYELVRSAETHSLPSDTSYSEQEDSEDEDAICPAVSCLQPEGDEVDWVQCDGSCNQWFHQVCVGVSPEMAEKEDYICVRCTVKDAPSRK

Take `C=CC1=C(C(=O)O)N2C(=O)[C@@H](NC(=O)/C(=N\OCC(=O)O)c3csc(N)n3)[C@H]2SC1` [YU039791, CEFIXIME TRIHYDRATE, reference compound]: at JARID1B, the inhibition at 20 µM is 105% and the “Validation result of HTS active: effect of the compound in the JARID1B AlphaScreen demethylase assay” value (“Validation result of HTS active” below) was 104.49. In assay [1], the “Artifact signal: effect of the compound when it is incubated with bio-H3K4me2 peptide” value (“Artifact signal: effect of the compound” for short) stood at 96.65.

Regarding `O=C(O[C@@H]1Cc2c(O)cc(O)cc2O[C@@H]1c1cc(O)c(O)c(O)c1)c1cc(O)c(O)c(O)c1` [YU040338, Epigallocatechin gallate, reference compound], at JARID1B, the “Assay − Artifact Signal (percent)” value turned out to be 15.48%, the inhibition at 20 µM came out at 100% and the “Assay Signal (percent)” value is 96.04%. Further, the “Artifact Signal (percent)” value in assay [1] worked out at 80.56%.

Consider `Cc1cc(-c2ccc(NC(=O)CCC(=O)O)c(C)c2)ccc1NC(=O)CCC(=O)O` [YU104987], for which, on JARID1B, the inhibition at 20 µM came to 55.2% and the “Validation result of HTS active” value turned out to be 7.41. The “Artifact signal: effect of the compound” value in assay [1] was determined as 3.17.

For the compound `O=C(CCCCCCC(=O)N(c1ccccc1)c1ccccc1)N(c1ccccc1)c1ccccc1` [YU105079], on JARID1B, the inhibition at 20 µM is 68.9% and the “Validation result of HTS active” value was determined as 44.39. The “Artifact signal: effect of the compound” value in assay [1] was determined as 43.24.

As to `Cc1ccc(C)c(CN2CCN(Cc3ccccc3)CC2)c1` [YU105182], at JARID1B, the inhibition at 20 µM amounted to 35.3% and the “Validation result of HTS active” value came out at 3.14. The “Artifact signal: effect of the compound” value in assay [1] was −1.74.

Consider `Clc1cccc(N2CCN(Cc3ccc4ccccc4c3)CC2)c1` [YU105195], for which, on JARID1B, the inhibition at 20 µM came to 38.9% and the “Validation result of HTS active” value stood at 8.75. Further, in assay [1], the “Artifact signal: effect of the compound” value amounted to 5.28.

In the case of `Cc1ccc([N+](=O)[O-])cc1N(CC(=O)Nc1ccc(Cl)c(C(F)(F)F)c1)S(C)(=O)=O` [YU121632], on JARID1B, the inhibition at 20 µM is 59.2% and the “Validation result of HTS active” value worked out at 2.95. In addition, the “Artifact signal: effect of the compound” value in assay [1] was −1.84.

As for `c1cc(CNc2ccc(N3CCOCC3)cc2)ccn1` [YU129874], at JARID1B, the “Assay − Artifact Signal (percent)” value was found to be 67.88%, the inhibition at 20 µM came to 74.5% and the “Assay Signal (percent)” value came out at 72.06%. Besides, the “Artifact Signal (percent)” value in assay [1] is 4.18%.

Consider `CC(=O)NNC(=O)c1ccncc1` [YU129955], for which, at JARID1B, the “Assay − Artifact Signal (percent)” value amounted to 96.89%, the inhibition at 20 µM stood at 88.7% and the “Assay Signal (percent)” value is 92.06%. In addition, the “Artifact Signal (percent)” value in assay [1] is listed as −4.84%.

Take `OC1CCN(C(=S)NC2CC2)CC1` [YU144896]: at JARID1B, the inhibition at 20 µM was determined as 90.6% and the “Validation result of HTS active” value is on record as −9.38. For the same compound, the “Artifact signal: effect of the compound” value in assay [1] is recorded as −14.49.

Take `CCn1c(S)nnc1-c1ccncc1` [YU144949]: at JARID1B, the “Assay − Artifact Signal (percent)” value turned out to be 43.88%, the inhibition at 20 µM came to 38.8% and the “Assay Signal (percent)” value stood at 40.70%. Also, the “Artifact Signal (percent)” value in assay [1] is listed as −3.18%.

`CCC(=O)c1c(O)n(C)c(=O)n(C)c1=O` [YU145029]: at JARID1B, the “Assay − Artifact Signal (percent)” value is 34.42%, the inhibition at 20 µM was 61.6% and the “Assay Signal (percent)” value turned out to be 34.53%. Moreover, the “Artifact Signal (percent)” value in assay [1] is 0.11%.

As for `CCOc1c(O)ccc(C=O)c1[N+](=O)[O-]` [YU145037], on JARID1B, the inhibition at 20 µM stood at 66.1% and the “Validation result of HTS active” value is −4.02. In assay [1], the “Artifact signal: effect of the compound” value is on record as −1.09.

As for `O=C1NC(=O)C(c2ccc(Cl)cc2)N1` (stereo not shown) [YU145089], on JARID1B, the inhibition at 20 µM stood at 78.3% and the “Validation result of HTS active” value was determined as 4.23. Besides, the “Artifact signal: effect of the compound” value in assay [1] is given as −1.01.

For the compound `CSc1nc2cc(F)c(F)cc2n1C` [YU145132], at JARID1B, the inhibition at 20 µM was 91.5% and the “Validation result of HTS active” value is given as −6.93. For the same compound, in assay [1], the “Artifact signal: effect of the compound” value is given as −7.06.

As to `CC(NC(=O)c1ccco1)c1ccncc1` (stereo not shown) [YU145239], at JARID1B, the inhibition at 20 µM was found to be 42.4% and the “Validation result of HTS active” value came to 7.68. Moreover, the “Artifact signal: effect of the compound” value in assay [1] worked out at 0.21.

For `Cc1ccc(CNn2cnnc2S)cc1` [YU145266], at JARID1B, the “Assay − Artifact Signal (percent)” value was 44.07%, the inhibition at 20 µM worked out at 45.7% and the “Assay Signal (percent)” value was 45.11%. Moreover, the “Artifact Signal (percent)” value in assay [1] stood at 1.04%.

In the case of `COc1ccc2c(CCN)c[nH]c2c1.Cl` [YU145407], on JARID1B, the “Assay − Artifact Signal (percent)” value came out at 8.55%, the inhibition at 20 µM was 43% and the “Assay Signal (percent)” value was 6.76%. Besides, the “Artifact Signal (percent)” value in assay [1] is given as −1.79%.

In the case of `Cc1ccsc1CNn1cnnc1S` [YU145432], on JARID1B, the “Assay − Artifact Signal (percent)” value came out at 46.83%, the inhibition at 20 µM is 33.3% and the “Assay Signal (percent)” value turned out to be 48.50%. For the same compound, in assay [1], the “Artifact Signal (percent)” value was determined as 1.67%.

For `O=C(O)c1cccc(NCc2ccncc2)c1` [YU145461], at JARID1B, the “Assay − Artifact Signal (percent)” value came to 95.48%, the inhibition at 20 µM turned out to be 94.6% and the “Assay Signal (percent)” value turned out to be 96.37%. The “Artifact Signal (percent)” value in assay [1] was determined as 0.89%.

On to `Cc1ccc(C)n1NC(=O)c1ccc(O)cc1` [YU145520], for which, on JARID1B, the inhibition at 20 µM was determined as 36.9% and the “Validation result of HTS active” value was 3.79. Further, in assay [1], the “Artifact signal: effect of the compound” value amounted to 1.80.

For `N#Cc1c(O)nc(S)nc1-c1ccccc1` [YU145521], at JARID1B, the “Assay − Artifact Signal (percent)” value came out at 9.91%, the inhibition at 20 µM was found to be 68.2% and the “Assay Signal (percent)” value was determined as 6.99%. For the same compound, the “Artifact Signal (percent)” value in assay [1] is given as −2.92%.

Take `c1ccc2c(NCc3ccncc3)cccc2c1` [YU145649]: at JARID1B, the “Assay − Artifact Signal (percent)” value came out at 87.87%, the inhibition at 20 µM came out at 87.7% and the “Assay Signal (percent)” value is listed as 89.97%. Further, the “Artifact Signal (percent)” value in assay [1] came out at 2.10%.

Turning to `Cc1cc(C)nc(N(C#N)C(=S)N(C)C)n1` [YU145653], at JARID1B, the “Assay − Artifact Signal (percent)” value stood at 27.17% and the “Assay Signal (percent)” value came to 18.58%. Further, the “Artifact Signal (percent)” value in assay [1] is recorded as −8.59%.

Consider `CCCN1CCN(C(=O)c2ccncc2)CC1` [YU145702], for which, on JARID1B, the “Assay − Artifact Signal (percent)” value stood at 45.86%, the inhibition at 20 µM is 35.9% and the “Assay Signal (percent)” value is recorded as 44.33%. In addition, the “Artifact Signal (percent)” value in assay [1] was −1.53%.

Take `CC(C)n1c(-c2ccccc2F)n[nH]c1=S` [YU145747]: on JARID1B, the “Assay − Artifact Signal (percent)” value was 31.49%, the inhibition at 20 µM came out at 31.3% and the “Assay Signal (percent)” value worked out at 36.22%. Moreover, the “Artifact Signal (percent)” value in assay [1] came out at 4.74%.

Turning to `CC(O)Cc1nnc(S)n1-c1ccccc1` (stereo not shown) [YU145796], on JARID1B, the “Assay − Artifact Signal (percent)” value is on record as 40.83%, the inhibition at 20 µM turned out to be 34.8% and the “Assay Signal (percent)” value came to 33.04%. The “Artifact Signal (percent)” value in assay [1] was −7.79%.

As for `Cl.Cn1cccc1CNCc1ccncc1` [YU145853], on JARID1B, the “Assay − Artifact Signal (percent)” value is 57.65%, the inhibition at 20 µM worked out at 76.6% and the “Assay Signal (percent)” value is listed as 66.64%. Moreover, the “Artifact Signal (percent)” value in assay [1] is 8.99%.

For the compound `CN(C)c1cccc2c(C=O)ccc(N(C)C)c12` [YU145980], at JARID1B, the “Assay − Artifact Signal (percent)” value was found to be 28.03%, the inhibition at 20 µM amounted to 32.3% and the “Assay Signal (percent)” value is 35.60%. The “Artifact Signal (percent)” value in assay [1] came to 7.56%.

For `Cc1cc(C)nc(Nc2ccc(N(C)C)cc2)n1` [YU146020], on JARID1B, the “Assay − Artifact Signal (percent)” value is recorded as 8.99%, the inhibition at 20 µM was determined as 30.9% and the “Assay Signal (percent)” value turned out to be 12.15%. Also, in assay [1], the “Artifact Signal (percent)” value stood at 3.15%.

For `Cc1ccc(-n2sc3ccccc3c2=O)cc1` [YU146026], on JARID1B, the “Assay − Artifact Signal (percent)” value came to 85.63%, the inhibition at 20 µM came out at 87.8% and the “Assay Signal (percent)” value is recorded as 88.51%. In assay [1], the “Artifact Signal (percent)” value is on record as 2.88%.

As to `COC(=O)Nc1nnc(CC2CCCC2)s1` [YU146034], on JARID1B, the “Assay − Artifact Signal (percent)” value is given as 21.12%, the inhibition at 20 µM stood at 33% and the “Assay Signal (percent)” value turned out to be 18.33%. Further, the “Artifact Signal (percent)” value in assay [1] is recorded as less than 2.79%.

Regarding `O=C(NCCOc1ccccc1)c1ccccc1` [YU146037], on JARID1B, the inhibition at 20 µM is 32.6% and the “Validation result of HTS active” value is −0.56. Besides, the “Artifact signal: effect of the compound” value in assay [1] is recorded as −1.42.

Take `c1cc(CNc2ccc3c(c2)OCCO3)ccn1` [YU146041]: at JARID1B, the “Assay − Artifact Signal (percent)” value stood at 54.24%, the inhibition at 20 µM amounted to 48.7% and the “Assay Signal (percent)” value is reported as 55.23%. Besides, the “Artifact Signal (percent)” value in assay [1] came out at 0.99%.

Regarding `C=CCNCCCCOc1cccc(OCC)c1` [YU146294], on JARID1B, the “Assay − Artifact Signal (percent)” value turned out to be 8.13%, the inhibition at 20 µM turned out to be 36.5% and the “Assay Signal (percent)” value is 14.08%. Further, in assay [1], the “Artifact Signal (percent)” value was determined as 5.94%.

As to `COc1ccc(CNn2c(C)nnc2S)cc1` [YU146438], at JARID1B, the “Assay − Artifact Signal (percent)” value was determined as 42.15%, the inhibition at 20 µM came out at 36.9% and the “Assay Signal (percent)” value was 50.33%. Also, the “Artifact Signal (percent)” value in assay [1] was determined as 8.17%.

These data come from patent US20150272939A1, “Identification of Small Molecule Inhibitors of Jumonji AT-Rich Interactive Domain 1A (JARID1A) and 1B (JARID1B) Histone Demethylase” (Yale University, priority 2012, published 2015).
